Tested on: U87 cells
Conditions: MTS
Experimental: Cell were seeded at 3E3 cells in 96-well plates the day before. At 24 hour post cell seeding, PALA at 0.00975, 0.039, 0.156, 0.625, 2.5, 10, 40 and 160 uM were added to the culture for 5 consecutive days followed by an MTS assay to determine the cell viability. […] A range of cytosine concentrations (0.2, 1, 5 10 mM) in culture was also determined by performing the same experiment described above.

Row | Molecule | IC50 (read-out: ICH of PALA, naive U87, U87 with pAC3-yCD2 and with pAC3.S1-yCD2, 5 consecutive days) | tolerance of cells to cytosine (0.2, 1, 5 10 mM cytosine in culture)
1 | N-(phosphonacetyl)-L-aspartate [PALA] | 8 to 30 µM | –
2 | Nc1cc[nH]c(=O)n1 [cytosine] | – | tolerate cytosine in all concentrations tested

Source: US11065311B2, “Retroviral vector with mini-promoter cassette” (DENOVO BIOPHARMA LLC, priority 2012, dated 2021)
